Test results published in US6774128B2, “Methods for prevention and treatment of gastrointestinal disorders” (Johns Hopkins University, priority 2000, dated 2004).
Entries after “also recorded” stand apart in the source; their conditions may differ. Like-named read-outs stand apart in the source and are kept apart here.

Tests used:
[1] = test system: STZ-diabetic and NOD-diabetic mice; assay: Gastric emptying of phenol red-labeled liquid meal in diabetic mice; assay type: in vivo, mouse; details: for t½ for gastric emptying: 1 mg/kg intraperitoneal 20 minutes before; for gastric emptying (20% dextrose): NOD-diabetic and STZ-diabetic mice after 1 week of insulin treatment
Protocol: Animals. Mice were allowed free access to food and water except when fasted, as indicated for experiments. Wild-type mice (C57BL/6) were purchased from The Jackson Laboratory (Bar Harbor, Me., USA). nNOS^−/− mice were obtained following targeted genomic deletion of nNOS (15) and have the genetic background of C57BL/6 mice (28). For STZ-induced diabetes, adult male mice (C57BL/6) were injected intraperitoneally with a single dose of STZ (200 mg/kg in 0.1 M sodium citrate) as described elsewhere (29), whereas control mice were injected with an equal volume of vehicle (sodium citrate). STZ-treated mice were used for experiments 8 weeks after STZ injection. […]; Boehringer Mannheim, Indianapolis, Ind., USA). The average serum glucose levels for wild-type animals and the STZ diabetic mice 8 weeks after injection were 99 mg/dL and 388 mg/dL, respectively (Table 1). Adult male nonobese diabetic (NOD/LtJ [NOD]) mice were obtained at 8-10 weeks of age (The Jackson Laboratory). Serum glucose levels were also monitored weekly with the Accu-Check monitor. NOD-prediabetic mice and NOD-diabetic mice had average serum glucose levels of 88 mg/dL and 232 mg/dL, respectively (Table 1). For the indicated experiments, NOD-prediabetic mice were sacrificed at 10 weeks of age after serum glucose levels were confirmed, whereas NOD-diabetic mice were sacrificed at 30-32 weeks of age after elevated serum glucose levels were confirmed.
(§1) Insulin treatment was given using LinBit, a sustained-release insulin implant (0.1 U/d/implant; LinShin Canada Inc., Toronto, Ontario, Canada). After brief anesthesia with diethyl echer, the insulin implant was quickly immersed in Betadine solution (McKesson, San Francisco, Calif., USA) and implanted subcutaneously with a 12-gauge needle. Serum glucose levels were monitored, and insulin-treated animals were used for experiments after 12 hours or 1 week of insulin therapy, as indicated. The serum glucose levels after 1 week of insulin treatment are shown (Table 1), as are the serum glucose levels after 12 hours of insulin treatment (see FIG. 2b).
As indicated, insulin-treated diabetic mice were treated with the nNOS inhibitor 7-nitroindazole (7-NI; Lancaster, Wyndham, N.H., USA) by two intraperitoneal injections (50 mg/kg) of a suspension in sesame oil (Sigma Chemical Co., St. Louis, Miss., USA) given 24 hours and 30 minutes before determination of gastric emptying. […] For all experiments, control animals were similarly injected with vehicle (either sesame oil or water).
Gastric emptying. Gastric emptying of liquids was determined as described previously (30). For any experiments using diabetic mice, serum glucose levels of all animals were confirmed immediately before monitoring gastric emptying. Adult mice were sedated briefly (<30 seconds) with diethyl ether. Mice fully recovered from sedation in less than 1 minute. During brief sedation, oral-gastric intubation was accomplished with a 21-gauge needle fitted with a thin plastic catheter (8 cm in length). Then, 0.2 mL of 1 mg/mL phenol red-labeled 20% dextrose (or other solution, if indicated) was instilled into the stomach. Mice were placed in clean, empty cages until the time of sacrifice. At the indicated time (0-120 minutes), mice were rapidly sacrificed by cervical dislocation and the stomach was excised. The duodenum was ligated, followed by transverse resection of the lower esophagus, and the stomach was removed from the body cavity. Excised stomachs were homogenized with a polytron (Brinkmann, Westbury, N.Y., USA) homogenizer in 3 mL of 95% ethyl alcohol. After centrifugation (40,000 g for 20 minutes), an aliquot of the supernatant was used to determine phenol red content. Standard curve was constructed and found to be linear over the range of 1-20 microgram of phenol red. Phenol red content was monitored at 410 nm, at which a single peak of absorbance was observed when extracted with ethanol. […]

[2] = test system: pyloric sphincter muscle; assay: Organ bath physiology: EFS-evoked NO-dependent NANC relaxation of ex vivo pylori; design: species or system mouse
[3] = test system: nNOS; assay: Immunohistochemistry of nNOS protein expression in pyloric myenteric neurons; assay type: in vivo, mouse; details: NOD-diabetic and STZ-diabetic mice, insulin treatment (1 week)
Protocol: as §1
Immunohistochemistry. For nondiabetic studies, wild-type animals or 10-week-old NOD-prediabetic animals were used. For diabetic studies, we used animals 8 weeks after STZ injection (STZ diabetic) or 30-week-old NOD mice (NOD-diabetic). Pylori or other tissues were dissected and immediately imbedded (Tissue-Tek OCT 4583; Sakura Finetek Inc., Torrence, Calif., USA) and placed in dry ice and allowed to freeze. Routine sections (10 micrometer) were cut using a cryostat (−19° C.; Leica Microm, Allendale, N.J., USA). For immunostaining, slides were fixed for 5 minutes in 4.0% paraformaldehyde, washed in PBS, and permeablized with 0.1% Triton X-100 in PBS. […]

[4] = test system: nNOS mRNA; assay: In situ hybridization of nNOS mRNA in pyloric myenteric neurons; assay type: in vivo, mouse; details: NOD-diabetic and STZ-diabetic mice, insulin treatment (1 week)
Protocol: as §1
In situ hybridization. In situ hybridization for nNOS was performed as described previously (31,32).

[5] = test system: nNOS; assay: Western blot analysis of nNOS protein expression in intestinal tissues; assay type: in vivo, mouse; details: NOD-diabetic mice, insulin treatment (1 week)
Protocol: as §1
Western blot analysis. Mouse tissues were homogenized in ice-cold buffer containing 50 mM Tris (pH 7.4, 25° C.), 100 mM NaCl, 1 mM EGTA, and protease inhibitors (4 microgram/mL leupeptin, 2 microgram/mL antipain, 2 microgram/mL pepstatin, and 1 mM PMSF). After centrifugatin (1.5 minutes, 16,000 g), the supernatants were collected and protein content was determined (Coomassie protein assay; Pierce Chemical Co., Rockville, Ill., USA). Samples (50 microgram protein) were subjected to SDS-PAGE (4-12% gradient gel; Bis-tris NuPage; Novex, San Diego, Calif., USA) and then transferred to PVDF membranes (Immobilon-P; Millipore Corp., Bedford, Mass., USA). […]

[6] = wild-type pylori precontracted with 0.1 micromolar SP, inhibitor 0.1 mM

Compound: O=[N+]([O-])c1cccc2cn[nH]c12 [Compound 7-NI, 7-nitroindazole]
- gastric emptying at 30 minutes ([1]; insulin-treated (1 week) STZ-diabetic and NOD-diabetic mice, 7-NI 50 mg/kg intraperitoneal, 24 hours and 30 minutes before): reverses the restoration of normal gastric emptying; also recorded: delays gastric emptying
- NANC relaxation ([2]; pylori of insulin-treated diabetic mice, in the presence of 0.1 mM 7-NI): completely blocked
- EFS-evoked NANC relaxation [2, 6]: blocked

Compound: NC(=NCCC[C@H](N)C(=O)O)N[N+](=O)[O-] [L-NNA, N-nitro-[.-arginine]
- EFS-evoked NANC relaxation [2, 6]: blocked

Compound: CCCc1nn(C)c2c(=O)[nH]c(-c3cc(S(=O)(=O)N4CCN(C)CC4)ccc3OCC)nc12 [sildenafil, 5-[2-ethoxy-5-(4-methylpiperazin-1-ylsulphonyl)phenyl]-1-methyl-3-n-propyl-1,6-dihydro-7H-pyrazolo[4,3d]pyrimidin-7-one]
- effect on delayed gastric emptying ([1]; STZ-diabetic and NOD-diabetic mice, sildenafil 1 mg/kg): reverses the delayed gastric emptying; also recorded: reveres delayed gastric emptying
- t½ for gastric emptying ([1]; sildenafil-treated NOD-diabetic mice): 36 min
- t½ for gastric emptying ([1]; sildenafil-treated STZ-diabetic mice): 30 min

Compound: insulin
- gastric emptying (20% dextrose) [1]: restored to normal
- gastric emptying (20% dextrose) ([1]; listed as Insulin): reverses delayed gastric emptying
- t½ of gastric emptying ([1]; STZ-diabetic mice after insulin treatment for 12 hours (subcutaneous implant), sham STZ-diabetic 60, wild-type 36): 54 min
- EFS-evoked NANC relaxation ([2]; pylori of NOD-diabetic mice after insulin treatment (1 week)): partially restores NANC relaxation
- EFS-evoked NANC relaxation ([2]; pylori of STZ-diabetic mice after insulin treatment (1 week)): restores NANC relaxation
- nNOS protein expression in pyloric myenteric neurons [3]: reverse the loss of nNOS expression; also recorded: near normal levels
- nNOS mRNA expression in pylori [4]: substantially restores
- nNOS protein expression (Western blot) in intestinal regions [5]: fully reversible
- nNOS protein expression (Western blot) in intestinal regions ([5]; listed as Insulin): completely reverses the loss of nNOS protein

Compound: retrodotoxin [TTX]
- EFS-evoked NANC relaxation [2]: completely blocked
